{"source": "paper PMC7827406", "about": "“Structure–Activity Relationship (SAR) Study of Spautin-1 to Entail the Discovery of Novel NEK4 Inhibitors” (International Journal of Molecular Sciences, 2021)", "assay_in_all_cases": "biochemical", "design_in_all_cases": "Eurofins KinaseProfiler full panel at Km ATP, residual kinase activity (%) relative to DMSO", "key": {"FGFR1(V561M)(h)": {"biological_target": "FGFR1(V561M)(h) (Homo sapiens, UniProt P11362, V561M)", "sequence (P11362 whole entry V561M)": "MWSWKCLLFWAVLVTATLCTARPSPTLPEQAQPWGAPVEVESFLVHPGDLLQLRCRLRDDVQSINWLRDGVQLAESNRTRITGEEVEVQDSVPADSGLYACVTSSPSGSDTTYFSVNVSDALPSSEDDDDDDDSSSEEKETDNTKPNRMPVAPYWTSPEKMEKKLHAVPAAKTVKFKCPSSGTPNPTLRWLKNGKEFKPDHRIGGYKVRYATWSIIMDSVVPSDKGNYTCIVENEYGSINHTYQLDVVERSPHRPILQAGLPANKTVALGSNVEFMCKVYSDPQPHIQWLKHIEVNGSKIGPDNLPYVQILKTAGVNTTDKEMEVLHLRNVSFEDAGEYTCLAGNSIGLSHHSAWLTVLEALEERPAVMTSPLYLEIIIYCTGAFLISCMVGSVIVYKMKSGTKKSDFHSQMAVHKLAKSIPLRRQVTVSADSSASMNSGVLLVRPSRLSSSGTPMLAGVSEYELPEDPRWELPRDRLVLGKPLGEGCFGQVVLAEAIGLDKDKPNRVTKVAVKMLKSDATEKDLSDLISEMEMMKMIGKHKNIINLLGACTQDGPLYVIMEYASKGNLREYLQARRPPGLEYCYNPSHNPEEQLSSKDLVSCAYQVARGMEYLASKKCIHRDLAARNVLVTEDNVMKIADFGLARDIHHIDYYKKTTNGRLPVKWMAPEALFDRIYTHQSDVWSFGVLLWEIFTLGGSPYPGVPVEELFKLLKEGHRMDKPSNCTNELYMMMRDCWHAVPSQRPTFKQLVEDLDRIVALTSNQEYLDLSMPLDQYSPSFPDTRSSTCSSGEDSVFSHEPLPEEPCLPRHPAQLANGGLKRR", "summary_of_the_method": "(§1)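 Two 10 µM single-concentration screens were run: a competition-binding screen, in which DNA-tagged kinase bound to immobilized ligands was quantified by qPCR, and a radiometric activity panel at Km ATP. Each is expressed as residual kinase activity (%).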"}, "DYRK2(h)": {"biological_target": "T1, DYRK2(h) (Homo sapiens, UniProt Q92630)", "T1 sequence (Q92630 1-601)": "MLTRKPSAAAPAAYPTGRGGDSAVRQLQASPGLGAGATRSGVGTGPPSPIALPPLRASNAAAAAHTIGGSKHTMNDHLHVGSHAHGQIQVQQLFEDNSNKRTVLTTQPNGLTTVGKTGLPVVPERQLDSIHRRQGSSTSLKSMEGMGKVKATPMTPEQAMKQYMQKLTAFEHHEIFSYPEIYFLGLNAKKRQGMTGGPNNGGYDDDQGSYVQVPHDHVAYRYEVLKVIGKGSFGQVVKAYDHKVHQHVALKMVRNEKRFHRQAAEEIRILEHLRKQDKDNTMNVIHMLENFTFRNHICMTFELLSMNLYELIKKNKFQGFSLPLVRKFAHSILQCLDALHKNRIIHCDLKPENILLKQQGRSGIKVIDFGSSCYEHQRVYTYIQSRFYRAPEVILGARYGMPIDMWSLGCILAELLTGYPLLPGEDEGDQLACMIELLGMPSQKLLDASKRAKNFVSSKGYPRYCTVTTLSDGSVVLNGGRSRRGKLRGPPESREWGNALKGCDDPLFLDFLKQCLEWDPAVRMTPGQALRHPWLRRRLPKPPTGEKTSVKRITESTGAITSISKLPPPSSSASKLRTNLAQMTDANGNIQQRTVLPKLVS", "summary_of_the_method": "as §1"}, "PIP5K1g(h)": {"biological_target": "T2, PIP5K1g(h) (Homo sapiens, UniProt O60331)", "T2 construct": "gene PIP5K1C", "summary_of_the_method": "as §1"}, "LIMK2(h)": {"biological_target": "LIMK2(h) (Homo sapiens, UniProt P53671)", "sequence (P53671 whole entry)": "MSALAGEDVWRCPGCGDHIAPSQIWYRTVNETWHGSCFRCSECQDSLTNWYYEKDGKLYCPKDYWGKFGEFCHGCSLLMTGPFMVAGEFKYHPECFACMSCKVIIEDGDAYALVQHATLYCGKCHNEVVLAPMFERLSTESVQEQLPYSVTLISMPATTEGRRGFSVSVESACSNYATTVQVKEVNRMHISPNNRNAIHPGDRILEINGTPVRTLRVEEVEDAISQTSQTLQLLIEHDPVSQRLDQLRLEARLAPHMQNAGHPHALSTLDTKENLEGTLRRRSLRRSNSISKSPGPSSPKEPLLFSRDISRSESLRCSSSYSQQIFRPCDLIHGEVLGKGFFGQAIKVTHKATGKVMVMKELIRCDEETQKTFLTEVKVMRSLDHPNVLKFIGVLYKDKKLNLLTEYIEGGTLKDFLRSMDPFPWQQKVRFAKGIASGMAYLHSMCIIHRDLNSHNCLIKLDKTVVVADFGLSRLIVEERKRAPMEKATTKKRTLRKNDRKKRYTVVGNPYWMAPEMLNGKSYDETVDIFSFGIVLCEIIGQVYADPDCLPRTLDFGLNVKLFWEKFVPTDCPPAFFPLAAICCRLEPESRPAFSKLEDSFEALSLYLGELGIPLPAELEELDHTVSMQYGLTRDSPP", "summary_of_the_method": "as §1"}, "PKD2(h)": {"biological_target": "T3, PKD2(h) (Homo sapiens, UniProt Q9BZL6)", "T3 construct": "gene PRKD2", "T3 sequence (Q9BZL6 1-878)": "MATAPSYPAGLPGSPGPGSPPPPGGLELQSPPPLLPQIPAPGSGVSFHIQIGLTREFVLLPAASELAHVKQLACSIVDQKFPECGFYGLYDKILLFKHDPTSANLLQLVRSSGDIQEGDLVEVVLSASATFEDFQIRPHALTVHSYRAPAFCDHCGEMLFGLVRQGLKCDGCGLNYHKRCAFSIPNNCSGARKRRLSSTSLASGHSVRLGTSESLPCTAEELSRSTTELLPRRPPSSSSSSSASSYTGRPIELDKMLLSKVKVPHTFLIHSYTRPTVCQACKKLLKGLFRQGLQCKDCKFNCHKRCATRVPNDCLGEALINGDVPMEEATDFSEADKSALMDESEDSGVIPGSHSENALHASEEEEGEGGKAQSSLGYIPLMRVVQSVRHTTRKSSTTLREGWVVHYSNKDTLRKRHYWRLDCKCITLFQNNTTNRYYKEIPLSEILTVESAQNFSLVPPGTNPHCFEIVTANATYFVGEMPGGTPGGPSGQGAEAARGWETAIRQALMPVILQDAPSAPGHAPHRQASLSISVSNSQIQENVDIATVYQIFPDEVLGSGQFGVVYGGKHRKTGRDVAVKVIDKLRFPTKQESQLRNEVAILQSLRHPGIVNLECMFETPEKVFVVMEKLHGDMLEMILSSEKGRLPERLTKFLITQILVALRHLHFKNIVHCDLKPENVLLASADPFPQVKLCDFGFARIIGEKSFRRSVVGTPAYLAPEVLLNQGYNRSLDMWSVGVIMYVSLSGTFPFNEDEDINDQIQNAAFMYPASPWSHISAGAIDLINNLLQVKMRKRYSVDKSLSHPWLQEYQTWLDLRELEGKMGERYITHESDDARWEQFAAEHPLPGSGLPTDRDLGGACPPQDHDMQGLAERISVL", "summary_of_the_method": "as §1"}, "BTK(R28H)(h)": {"biological_target": "BTK(R28H)(h) (Homo sapiens, UniProt Q06187, R28H)", "sequence (Q06187 whole entry R28H)": "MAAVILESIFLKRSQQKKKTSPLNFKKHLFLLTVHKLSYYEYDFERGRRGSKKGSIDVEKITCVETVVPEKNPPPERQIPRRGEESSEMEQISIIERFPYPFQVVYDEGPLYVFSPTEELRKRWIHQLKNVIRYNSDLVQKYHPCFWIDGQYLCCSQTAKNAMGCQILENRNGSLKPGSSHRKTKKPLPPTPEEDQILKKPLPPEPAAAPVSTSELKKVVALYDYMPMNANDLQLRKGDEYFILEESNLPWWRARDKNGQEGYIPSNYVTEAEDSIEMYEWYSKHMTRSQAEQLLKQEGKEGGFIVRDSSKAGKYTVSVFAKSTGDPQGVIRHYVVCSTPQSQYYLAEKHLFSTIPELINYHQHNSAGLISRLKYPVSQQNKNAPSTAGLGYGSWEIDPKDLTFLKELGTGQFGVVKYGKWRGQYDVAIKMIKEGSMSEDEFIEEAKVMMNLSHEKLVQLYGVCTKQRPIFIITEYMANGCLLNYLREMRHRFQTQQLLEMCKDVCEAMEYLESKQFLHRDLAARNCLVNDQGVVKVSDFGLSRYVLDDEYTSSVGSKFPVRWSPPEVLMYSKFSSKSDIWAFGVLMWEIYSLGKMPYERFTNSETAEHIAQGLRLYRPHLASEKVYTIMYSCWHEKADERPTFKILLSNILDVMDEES", "summary_of_the_method": "as §1"}, "[1]": {"settings": "read-out: Residual activity (%) Spautin-1 5aa"}, "[2]": {"settings": "read-out: Residual activity (%) 5as"}, "[3]": {"settings": "read-out: Residual activity (%) 5at"}, "[4]": {"settings": "read-out: Residual activity (%) 5ay"}}, "note": "Where two headings read alike, the source gives them in different places.", "data": [{"smiles": "Fc1ccc(CNc2ncnc3ccc(F)cc23)cc1", "note": "[5aa, 6-Fluoro-N-(4-fluorobenzyl)-4-Quinazolinamine]", "values": [{"measurement": "remaining activity at 10 µM", "setting": "FGFR1(V561M)(h); [1]", "result": 123, "unit": "%"}, {"measurement": "remaining activity at 10 µM", "setting": "DYRK2(h); [1]", "result": 99, "unit": "%"}, {"measurement": "remaining activity at 10 µM", "setting": "PIP5K1g(h); [1]", "result": 100, "unit": "%"}, {"measurement": "remaining activity at 10 µM", "setting": "LIMK2(h); [1]", "result": 94, "unit": "%"}, {"measurement": "remaining activity at 10 µM", "setting": "PKD2(h); [1]", "result": 106, "unit": "%"}, {"measurement": "remaining activity at 10 µM", "setting": "BTK(R28H)(h); [1]", "result": 88, "unit": "%"}]}, {"smiles": "Fc1ccc(CCNc2ncnc3ccc(F)cc23)cc1", "note": "[5as, 6-Fluoro-N-[2-(4-Fluorophenyl)Ethyl]-4-Quinazolinamine]", "values": [{"measurement": "remaining activity at 10 µM", "setting": "FGFR1(V561M)(h); [2]", "result": 100, "unit": "%"}, {"measurement": "remaining activity at 10 µM", "setting": "DYRK2(h); [2]", "result": 100, "unit": "%"}, {"measurement": "remaining activity at 10 µM", "setting": "PIP5K1g(h); [2]", "result": 104, "unit": "%"}, {"measurement": "remaining activity at 10 µM", "setting": "LIMK2(h); [2]", "result": 87, "unit": "%"}, {"measurement": "remaining activity at 10 µM", "setting": "PKD2(h); [2]", "result": 74, "unit": "%"}, {"measurement": "remaining activity at 10 µM", "setting": "BTK(R28H)(h); [2]", "result": 103, "unit": "%"}]}, {"smiles": "Fc1ccc2ncnc(NCCc3ccc(Cl)cc3)c2c1", "note": "[5at, N-[2-(4-Chlorophenyl)Ethyl]-6-Fluoro-4-Quinazolinamine]", "values": [{"measurement": "remaining activity at 10 µM", "setting": "FGFR1(V561M)(h); [3]", "result": 95, "unit": "%"}, {"measurement": "remaining activity at 10 µM", "setting": "DYRK2(h); [3]", "result": 103, "unit": "%"}, {"measurement": "remaining activity at 10 µM", "setting": "PIP5K1g(h); [3]", "result": 101, "unit": "%"}, {"measurement": "remaining activity at 10 µM", "setting": "LIMK2(h); [3]", "result": 84, "unit": "%"}, {"measurement": "remaining activity at 10 µM", "setting": "PKD2(h); [3]", "result": 76, "unit": "%"}, {"measurement": "remaining activity at 10 µM", "setting": "BTK(R28H)(h); [3]", "result": 101, "unit": "%"}]}, {"smiles": "COc1ccc2ncnc(Nc3cccc(F)c3)c2c1", "note": "[5ay, N-(3-Fluorophenyl)-6-Methoxy-4-Quinazolinamine]", "values": [{"measurement": "remaining activity at 10 µM", "setting": "FGFR1(V561M)(h); [4]", "result": 108, "unit": "%"}, {"measurement": "remaining activity at 10 µM", "setting": "DYRK2(h); [4]", "result": 64, "unit": "%"}, {"measurement": "remaining activity at 10 µM", "setting": "PIP5K1g(h); [4]", "result": 107, "unit": "%"}, {"measurement": "remaining activity at 10 µM", "setting": "LIMK2(h); [4]", "result": 103, "unit": "%"}, {"measurement": "remaining activity at 10 µM", "setting": "PKD2(h); [4]", "result": 77, "unit": "%"}, {"measurement": "remaining activity at 10 µM", "setting": "BTK(R28H)(h); [4]", "result": 103, "unit": "%"}]}]}
